Assay results taken from the supplement of paper PMC10307832.

Key:
Assay in all cases: relative viability (nuclei count vs DMSO), 5 days (fraction); higher = more cells survive
AZD6482 + Pemetrexed = compound: Cc1cc([C@@H](C)Nc2ccccc2C(=O)O)c2nc(N3CCOCC3)cc(=O)n2c1 [AZD6482] + Nc1nc2[nH]cc(CCc3ccc(C(=O)N[C@@H](CCC(=O)O)C(=O)O)cc3)c2c(=O)[nH]1 [Pemetrexed] (partner 0.2 µM)
Procedure, shortened: (§1)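 Lung cancer cell lines were seeded in 1536-well plates and dosed by pin tool the next day, with either a single drug or a fixed anchor-drug dose combined with five library-drug doses (not always all listed) spaced in √10 steps. Five days later, one step fixed the cells and stained their nuclei (final 0.05% Triton X-100, 1% formaldehyde, 1 ug/ml Hoechst), and nuclei were counted on 4× images. Relative viability is the nuclei count in treated wells divided by the count in vehicle wells, and each value is the median of duplicate plates.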

[1] = compound: COc1cc2nc(N3CCCN(C)CC3)nc(NC3CCN(Cc4ccccc4)CC3)c2cc1OC + Cc1nc(NC(=O)N2CCC[C@H]2C(N)=O)sc1-c1ccnc(C(C)(C)C(F)(F)F)c1 [Alpelisib] (partner 2 µM)
Procedure, shortened: as §1

AZD6482 = compound: Cc1cc([C@@H](C)Nc2ccccc2C(=O)O)c2nc(N3CCOCC3)cc(=O)n2c1 [AZD6482]
Procedure, shortened: (§2)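 Viability here means nuclei in treated wells divided by nuclei in vehicle wells, reported as the median across plates. Only plates with control CV below 25% and at least one doubling passed. Lung cancer cell lines in 1536-well plates were exposed to five √10-spaced library-drug doses for 5 days and counted from 4× Hoechst images in MetaXpress.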

[2] = compound: COc1cc2nc(N3CCCN(C)CC3)nc(NC3CCN(Cc4ccccc4)CC3)c2cc1OC
Procedure, shortened: as §2

Cell Line	relative viability (AZD6482 + Pemetrexed; first compound 0.08 µM)	relative viability (AZD6482 + Pemetrexed; first compound 0.253 µM)	relative viability (AZD6482 + Pemetrexed; first compound 0.8 µM)	relative viability (AZD6482 + Pemetrexed; first compound 2.53 µM)	relative viability (AZD6482 + Pemetrexed; first compound 8 µM)	relative viability ([1]; first compound 0.2 µM)	relative viability ([1]; first compound 0.6325 µM)	relative viability ([1]; first compound 2 µM)	relative viability ([1]; first compound 6.325 µM)	relative viability (AZD6482; 0.08 µM)	relative viability (AZD6482; 0.253 µM)	relative viability (AZD6482; 0.8 µM)	relative viability (AZD6482; 2.53 µM)	relative viability (AZD6482; 8 µM)	relative viability ([2]; 0.2 µM)	relative viability ([2]; 0.6325 µM)	relative viability ([2]; 2 µM)	relative viability ([2]; 6.325 µM)
NCI-H2405	0.81	0.977	0.987	0.569	0.436	0.784	0.772	0.835	0.632	0.749	0.672	1.03	0.631	0.599	1.03	1.08	1.13	0.989
NCI-H3122	0.191	0.198	0.2	0.189	0.189	0.73	0.803	0.834	0.723	1	1.02	1.01	0.756	0.915	0.932	0.959	1.04	0.998
PC-3 [JPC-3]	1.07	1.05	1.04	0.634	0.533	1.06	0.97	1.09	0.986	0.899	1.06	1.08	0.814	0.985	1.06	1.02	1.06	0.959
PC-14	0.133	0.125	0.115	0.15	0.135	0.981	0.918	1.05	0.901	0.953	0.972	1.12	0.849	0.979	0.97	1.05	0.977	0.475
RERF-LC-KJ	0.461	0.459	0.465	0.439	0.449	0.905	0.878	0.902	0.661	0.875	0.888	0.784	0.878	0.763	0.995	0.977	1.04	0.912
SK-LU-1		0.906	1.04	0.738	0.714	1.21	0.977	1.04	0.577		0.978	1.03	0.722	0.592	1.01	1.01	1.08	1.02
SK-MES-1	0.84	0.974	0.876	0.394	0.532	1.08	0.887	0.975	0.827	0.794	0.946	0.709	0.405	0.444	1.01	1.01	1.03	0.791
SW 1573	0.881	0.822	0.827	0.723	0.75	0.614	0.696	0.729	0.724	0.916	0.908	0.818	0.677	0.674	0.906	0.983	1.02	0.651
UMC-11	0.752	0.822	0.811	0.633	0.738	0.953	0.973	1.15	1.01	0.949	0.94	1.01	0.736	1.22	0.998	0.973	1.06	0.932
